Consider 29 molecules from patent US10028961B2, “Therapeutically active compounds and their methods of use” (AGIOS PHARMACEUTICALS, INC., priority 2013, dated 2018).

The structures appear in SMILES notation. Like-named read-outs stand apart in the source and are kept apart here.

Experiment [1] has as its target IDH1 wt/IDH1 R132H heterodimer (Homo sapiens (Human), UniProt O75874, R132H). The experiment is described as follows: In vitro assay for IDH1m R132H inhibitors, IDH1 wt/IDH1 R132H heterodimer, NADPH depletion (diaphorase/resazurin). It is filed as biochemical. The method, boiled down: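 Read-out is NADPH left after α-KG reduction to 2-HG, measured via resorufin fluorescence after 5 min diaphorase/resazurin step at 25° C. Enzyme is sf9-expressed IDH1wt-his/IDH1R132H-flag heterodimer, pre-incubated 1 hr at room temperature with compound and cofactor. IC50s from DMSO stocks diluted 1:50.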

The target in experiment [2] is IDH1-R132H homodimer enzyme (Homo sapiens (Human), UniProt O75874, R132H). The experiment is described as follows: In vitro assay IDH1-R132H homodimer, NADPH depletion assay with NADPH/NADP preincubation. The class given is biochemical. The note with it: 5 μM NADPH and 37.5 μM NADP. As to the method: The following describes the experimental procedures that can be used to obtain data on columns 3 and 5 of Table 5.
A test compound is prepared as 10 mM stock in DMSO and diluted to 50× final concentration in DMSO, for a 50 μl reaction mixture. IDH enzyme activity converting alpha-ketoglutarate to 2-hydroxyglutaric acid is measured using a NADPH depletion assay. In the assay the remaining cofactor is measured at the end of the reaction with the addition of a catalytic excess of diaphorase and resazurin, to generate a fluorescent signal in proportion to the amount of NADPH remaining. […] The reaction is started with the addition of 10 μl of Substrate Mix ([…], 5 mM alpha-ketoglutarate, in Assay Buffer) and the mixture is incubated for 60 minutes at room temperature.

For a further experiment, the target named is IDH2 R140Q (Homo sapiens (Human), UniProt P48735, R140Q). The experiment is described as follows: In vitro assay for IDH2m R140Q inhibitors, cofactor depletion assay. It is filed as biochemical. The note with it: IDH2 R140Q enzyme. The method, boiled down:
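Remaining cofactor measured fluorimetrically: diaphorase/resazurin Stop Mix […], halting the reaction. Before that, mutant enzyme and compound sat 1 h at RT, then substrate mix (4 μM NADPH, 1.6 mM α-KG) was added for 16 h at RT.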

The test system of experiment [3] is U87MG pLVX-IDH2 R140Q-neo cells. Nature of the experiment: U87MG pLVX-IDH2 R140Q-neo cell based assay, 2-HG by LC-MS. The note with it: Homo sapiens, U-87 MG.
Experiment [4] concerns Neurosphere cells (TS603). Nature of the experiment: Cellular assay for IDH1m R132H inhibitors, 2-HG by LC-MS in neurosphere cells (TS603). The class given is cell-based. The note with it: 2-HG in media at 48 hours. As to the method: Cellular Assay for IDH1m R132H Inhibitors.
The following describes the experimental procedures that can be used to obtain data in column 4 of Table 5.
Neurosphere cells (TS603) are grown at 37 C in 5% CO2 in Stem Cell Technologies NeuroCult™ NS-A media supplemented with 1% Primocin, 1% Normocin, 0.0002% Heparin, 20 ng/mL EGF and 10 ng/mL bFGF. Cells are harvested, pelleted and resuspended in Accumax for cell dissociation and counting. Cells are counted and then resuspended in NeuroCult media with 2× heparin, EGF and bFGF at 4 million cells/10 mL media. 100 μl of cell solution are plated in each well of a 96 well with the exception of columns 1 and 12. Columns 1 and 12 contain 200 μL PBS. Compound dose responses are set up at a 2× concentration in Neurocult media without heparin, EGF and bFGF. The final concentration of DMSO is 0.25%. DMSO only control wells are plated in row H. The plates are then placed in the incubator for 48 hours. At 48 hours, 100 μl of media is removed from each well and analyzed by LC-MS for 2-HG concentrations. The cell plate is placed back in the incubator for another 24 hours. At 72 hours post compound addition, 10 mL/plate of Promega Cell Titer Glo reagent is thawed and mixed. The cell plate is removed from the incubator and allowed to equilibrate to room temperature. Then 100 μl of Promega Cell Titer Glo reagent is added to each well of media. The cell plate is then placed on an orbital shaker for 10 minutes and then allowed to sit at room temperature for 20 minutes. The plate is then read for luminescence with an integration time of 500 ms.

Setting [5] is: IDH1 wt/R132H heterodimer, NADPH/NADP, not saturated, read-out: IDH1 wt/R132H NADPH/NADP IC50 not saturated.
Where [6] appears, read: IDH1 wt/IDH1 R132H heterodimer, 300 μM NADP (saturated), read-out: IDH1 wt/R132H NADPH/NADP IC50 saturated.

Chain of IDH1-R132H homodimer enzyme (O75874 whole entry R132H): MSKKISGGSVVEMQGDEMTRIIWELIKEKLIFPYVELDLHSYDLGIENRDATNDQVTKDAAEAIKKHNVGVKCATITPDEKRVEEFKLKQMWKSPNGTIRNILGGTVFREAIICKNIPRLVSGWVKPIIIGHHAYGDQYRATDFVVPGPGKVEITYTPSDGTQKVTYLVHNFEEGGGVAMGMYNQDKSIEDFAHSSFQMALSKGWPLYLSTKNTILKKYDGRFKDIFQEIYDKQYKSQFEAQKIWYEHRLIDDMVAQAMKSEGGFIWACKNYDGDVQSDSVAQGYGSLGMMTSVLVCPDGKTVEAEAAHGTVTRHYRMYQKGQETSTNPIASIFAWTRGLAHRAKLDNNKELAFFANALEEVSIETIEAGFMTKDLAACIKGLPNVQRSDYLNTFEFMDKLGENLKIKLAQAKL
Chain of IDH1 wt/IDH1 R132H heterodimer (O75874 whole entry R132H): as above
Chain of IDH1 wt/IDH1 R132H heterodimer (O75874 whole entry, stated change not applied): as the sequence (O75874 whole entry R132H) above, with H132R counted along it
Chain of IDH2 R140Q (P48735 40-452 R140Q): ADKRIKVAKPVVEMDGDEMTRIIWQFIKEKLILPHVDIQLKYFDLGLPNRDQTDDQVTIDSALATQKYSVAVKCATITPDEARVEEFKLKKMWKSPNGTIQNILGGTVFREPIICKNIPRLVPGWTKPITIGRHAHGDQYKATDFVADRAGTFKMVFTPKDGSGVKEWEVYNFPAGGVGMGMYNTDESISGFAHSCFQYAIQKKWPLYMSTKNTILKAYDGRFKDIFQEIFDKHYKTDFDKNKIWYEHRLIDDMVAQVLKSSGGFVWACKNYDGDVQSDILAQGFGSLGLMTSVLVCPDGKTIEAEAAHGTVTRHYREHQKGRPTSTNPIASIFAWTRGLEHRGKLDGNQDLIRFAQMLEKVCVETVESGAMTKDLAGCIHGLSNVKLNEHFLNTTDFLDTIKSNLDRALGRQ

Regarding `Cc1nc(-c2nc(NC3CCC(F)(F)CC3)nc(NC3CCC(F)(F)CC3)n2)c[nH]1` [Compound 332], the IC50 in experiment [1] (setting [5]) and in experiment [2] was over 1000 nM in each case.
For `Cc1nsc(-c2nc(NC3CCC(F)(F)CC3)nc(NC3CCC(F)(F)CC3)n2)n1` [Compound 328], the IC50 in experiment [1] (setting [5]) and in experiment [2] was over 1000 nM in each case.
As to `Cc1nc(-c2nc(NC3CCC(F)(F)C3)nc(NC3CCC(F)(F)C3)n2)c[nH]1` (centres unmarked) [Compound 319], the IC50 in experiment [1] (setting [5]) and in experiment [2] was over 1000 nM each time.
With `Cn1cc(-c2nc(NC3CCC(F)(F)CC3)nc(NC3CCC(F)(F)CC3)n2)c(C(F)(F)F)n1` [Compound 275], the IC50 is 100 to 1000 nM in experiment [1] (setting [5]) and over 1000 nM in experiment [2].
The like results for `FC1(F)CCC(Nc2cc(NC3CCC(F)(F)CC3)nc(-c3cncc(C(F)(F)F)n3)n2)CC1` [Compound 421] were, in that order, 100 to 1000 nM and 100 to 1000 nM.
For `FC1(F)CCC(Nc2nc(NC3CCC(F)(F)CC3)nc(-c3nc(-c4ccccc4)ns3)n2)CC1` [Compound 333] the same measures were over 1000 nM and over 1000 nM.
In the case of `CC(F)(F)c1cncc(-c2nc(NC3CCC(F)(F)C3)nc(NC3CCC(F)(F)C3)n2)n1` (centres unmarked) [Compound 370], the IC50 (in experiment [1] (setting [6]); at IDH2 R140Q; in experiment [3]; in experiment [4]) was under 50 nM in each case.
Consider `Fc1cc(F)cc(Nc2nc(NC3CCC(F)(F)C3)nc(-c3cncc(Cl)n3)n2)c1` (centres unmarked) [Compound 109], for which the IC50 (in experiment [1] (setting [5]); against IDH2 R140Q; in experiment [3]; in experiment [4]) was under 50 nM in each case.
For `CC(F)(F)c1cncc(-c2nc(NC3CC(F)(F)C3)nc(NC3CC(F)(F)C3)n2)n1` [Compound 366], the IC50 (in experiment [1] (setting [6]); against IDH2 R140Q; in experiment [3]; in experiment [4]) was under 50 nM throughout.
With `CC[C@H](Nc1nc(N[C@@H](CC)C(F)(F)F)nc(-c2ccnc(C(F)(F)F)n2)n1)C(F)(F)F` [Compound 345], the IC50 in experiment [1] (setting [6]) was under 50 nM; against IDH2 R140Q, 100 to 1000 nM; in experiment [3] it was 100 to 1000 nM; in experiment [4] it was under 50 nM.
With `FC(F)(F)c1cccc(-c2nc(NCC3CC3(F)F)nc(NCC3CC3(F)F)n2)n1` (centres unmarked) [Compound 354], the IC50 is 50 to 100 nM in experiment [1] (setting [6]), under 50 nM on IDH2 R140Q, under 50 nM in experiment [3] and under 50 nM in experiment [4].
In the case of `C[C@@H](Nc1nc(Nc2ccnc(C3(C#N)CC3)c2)nc(-c2cccc(C(F)(F)F)n2)n1)C(F)(F)F` [Compound 352], the IC50 (in experiment [1] (setting [6]); at IDH2 R140Q; in experiment [3]; in experiment [4]) was under 50 nM in each case.
Take `C[C@H](Nc1nc(Nc2ccnc(C3(C#N)CC3)c2)nc(-c2cccc(C(F)(F)F)n2)n1)C(F)(F)F` [Compound 351]: the IC50 (in experiment [1] (setting [6]); at IDH2 R140Q; in experiment [3]; in experiment [4]) was under 50 nM each time.
Take `CC[C@H](Nc1nc(N[C@@H](CC)C(F)(F)F)nc(-c2cncc(C(F)(F)F)n2)n1)C(F)(F)F` [Compound 339]: the IC50 (in experiment [1] (setting [6]); at IDH2 R140Q; in experiment [3]; in experiment [4]) was under 50 nM each time.
With `Fc1cc(F)cc(Nc2nc(NC3CCC(F)(F)C3)nc(-c3nc(F)ccc3F)n2)c1` (centres unmarked) [Compound 139], the IC50 (in experiment [1] (setting [5]); on IDH2 R140Q; in experiment [3]; in experiment [4]) was under 50 nM in each case.
Consider `FC1(F)CC[C@@H](Nc2nc(N[C@H]3CCC(F)(F)C3)nc(-c3cncc(C(F)(F)F)n3)n2)C1` [Compound 399], for which the IC50 (in experiment [1] (setting [6]); against IDH2 R140Q; in experiment [3]; in experiment [4]) was under 50 nM throughout.
In the case of `N#CC1(c2cc(Nc3nc(N[C@@H]4CCC(F)(F)C4)nc(-c4ccnc(C(F)(F)F)n4)n3)ccn2)CC1` [Compound 342], the IC50 was 100 to 1000 nM in experiment [1] (setting [6]), under 50 nM against IDH2 R140Q, under 50 nM in experiment [3] and under 50 nM in experiment [4].
Regarding `C[C@H](Nc1nc(Nc2ccnc(C3(C#N)CC3)c2)nc(-c2cccc(C(C)(F)F)n2)n1)C(F)(F)F` [Compound 347], the IC50 (in experiment [1] (setting [6]); against IDH2 R140Q; in experiment [3]; in experiment [4]) was under 50 nM in each case.
Turning to `N#CC1(c2cc(Nc3nc(N[C@H]4CCC(F)(F)C4)nc(-c4ccnc(C(F)(F)F)n4)n3)ccn2)CC1` [Compound 341], the IC50 in experiment [1] (setting [6]) is 100 to 1000 nM; against IDH2 R140Q, under 50 nM; in experiment [3], under 50 nM; in experiment [4], under 50 nM.
In the case of `FC(F)(F)c1cc(Nc2nc(NCC3CC3)nc(-c3cncc(C(F)(F)F)n3)n2)ccn1` [Compound 387], the IC50 was 100 to 1000 nM in experiment [1] (setting [6]), under 50 nM at IDH2 R140Q, under 50 nM in experiment [3] and under 50 nM in experiment [4].
Regarding `C[C@@H](Nc1nc(Nc2ccnc(-c3ccc(Cl)cc3)c2)nc(-c2cccc(C(F)(F)F)n2)n1)C(F)(F)F` [Compound 364], the IC50 in experiment [1] (setting [6]) is 50 to 100 nM; against IDH2 R140Q, under 50 nM; in experiment [3], under 50 nM; in experiment [4] it was under 50 nM.
In the case of `CC(F)(F)c1cccc(-c2nc(Nc3ccnc(C4(C#N)CC4)c3)nc(NC3CC(F)(F)C3)n2)n1` [Compound 372], the IC50 (in experiment [1] (setting [6]); against IDH2 R140Q; in experiment [3]; in experiment [4]) was under 50 nM in each case.
Turning to `C[C@@H](Nc1nc(N[C@H](C)C2CC2)nc(-c2cccc(C(F)F)n2)n1)C1CC1` [Compound 198], the IC50 (in experiment [1] (setting [5]); at IDH2 R140Q; in experiment [3]; in experiment [4]) was under 50 nM each time.
As to `FC1(F)CC2(CC(Nc3nc(Nc4ccnc(C(F)(F)F)c4)nc(-c4cncc(C(F)(F)F)n4)n3)C2)C1` [Compound 380], the IC50 in experiment [1] (setting [6]) is 100 to 1000 nM; against IDH2 R140Q, under 50 nM; in experiment [3], under 50 nM; in experiment [4], under 50 nM.
On to `C[C@@H](Nc1nc(Nc2ccnc(-c3ccc(F)cc3)c2)nc(-c2cccc(C(F)(F)F)n2)n1)C(F)(F)F` [Compound 371], for which the IC50 (in experiment [1] (setting [6]); on IDH2 R140Q; in experiment [3]; in experiment [4]) was under 50 nM each time.
Consider `FC1(F)CCC(Nc2nc(NC3CCC(c4ccccc4)C3)nc(-c3cccc(C(F)(F)F)n3)n2)C1` (centres unmarked) [Compound 184], for which the IC50 (in experiment [1] (setting [5]); at IDH2 R140Q; in experiment [3]; in experiment [4]) was under 50 nM throughout.
With `FC1(F)CCC(Nc2nc(NC3CCC(F)(F)C3)nc(-c3nc(C(F)(F)F)cs3)n2)C1` (centres unmarked) [Compound 148], the IC50 (in experiment [1] (setting [5]); at IDH2 R140Q; in experiment [3]; in experiment [4]) was under 50 nM in each case.
With `FC1(F)CCC(Nc2nc(Nc3ccnc(C(F)(F)F)c3)nc(-c3nc(C(F)(F)F)cs3)n2)C1` (centres unmarked) [Compound 353], the IC50 (in experiment [1] (setting [6]); against IDH2 R140Q; in experiment [3]; in experiment [4]) was under 50 nM throughout.
As to `Fc1cc(F)cc(Nc2nc(N[C@@H]3CCC(F)(F)C3)nc(-c3cncc(C(F)(F)F)n3)n2)c1` [Compound 369], the IC50 (in experiment [1] (setting [6]); against IDH2 R140Q; in experiment [3]; in experiment [4]) was under 50 nM each time.
